This test deals with seizures. Put plainly: Reduction in the number of seizures in individuals with multiple daily seizures treated with rapamycin. Format: in vivo, human. Conditions: up to 7 mg/day rapamycin in combination with an anti-epileptic drug regimen, treatment 31-32 months. The method, then: In particular, 14 individuals experiencing multiple daily seizures (4 males with diagnosed TSC, 5 females with diagnosed TSC, 1 person with diagnosed Lennox-Gastaut Syndrome, and 4 females with diagnosed Lennox-Gastaut Syndrome) between the ages of 3-18 were administered rapamycin in combination with an anti-epileptic drug regimen. […] Each individual received between up to 7 mg/day of rapamycin. […] The duration of treatment was between 31 and 32 months.

This is an account of results in US20080188461A1, “Compositions and methods for detecting, preventing and treating seizures and seizure related disorders” (Regents of the University of Michigan, priority 2007, published 2008).

Regarding `CO[C@H]1C[C@@H]2CC[C@@H](C)[C@@](O)(O2)C(=O)C(=O)N2CCCC[C@H]2C(=O)O[C@H]([C@H](C)C[C@@H]2CC[C@@H](O)[C@H](OC)C2)CC(=O)[C@H](C)/C=C(\C)[C@@H](O)[C@@H](OC)C(=O)[C@H](C)C[C@H](C)/C=C/C=C/C=C/1C` [rapamycin, Rapamycin], the reduction in seizures result by setting is: (2 of the individuals diagnosed with TSC) “greater than 90%”; (3 of the individuals diagnosed with Lennox-Gastaut Syndrome) “greater than 90%”; (5 of the individuals diagnosed with Lennox-Gastaut Syndrome) “greater than 50%”; (5 of the individuals diagnosed with TSC) “greater than 50%”.
